Common to all, as to assay type: cell-based
The target of experiment [1] is T1, hCB1 mutant K232A^4.41 (Homo sapiens, UniProt P21554, K232A).
T1 construct: expressed in transfected cells; host or cells: HEK293
Briefly: pIRES G protein dissociation BRET assay, K232A mutant. The settings on record: 10 μM ligand alone. As for the experimental part: (§1) Mutagenesis studies using the pIRES G protein dissociation assay were performed using human embryonic kidney 293 (HEK293) wild-type cells transiently transfected with pplss-3HA-hCB1 [31] or modified receptor. All cells were cultured in Dulbecco’s Modified Eagle’s Medium (DMEM) supplemented with 10% fetal bovine serum (FBS), grown in […] vented-cap flasks, and maintained in a 37° C incubator at 5% CO2.
(§2) Mutants of pplss-3HA-hCB1 (WT, pEF-V4-HisA (pEF4a) construct) were generated using a modified QuikChange® (Stratagene, San Diego, CA, USA) site-directed mutagenesis approach using KAPA HiFi Hotstart Polymerase (KAPA Biosystems, Roche, Basel, Switzerland). Briefly, single-stranded primers used to modify one or two base pairs within the target amino acid using PCR were purchased from Integrated DNA Technologies (IDT, Coralville, IA, USA). All pplss-hCB1 mutants were generated using the pplss-3HA-hCB1 pEF4a as parental DNA. PCR products were generated using recommended cycling conditions and treated with Dpn1 (New England Biolabs, Ipswich, MA, USA) overnight at 37° C to digest methylated parental DNA. PCR products were electrophoresed and run on an agarose gel (1% (w.v^−1) agarose, HydraGene, Piscataway, NJ, USA) containing 0.25 μg/mL ethidium bromide (Sigma-Aldrich, St. Louis, MO, USA). Gels were run in 40 mM TRIS-acetate buffer containing […] (pH 8.3) at 100 V for 30 min, maximum current and included a 1kb+ DNA ladder (Invitrogen, Thermo Fisher Scientific, Carlsbad, CA, USA) for reference. Gels were imaged using an UVTech Alliance Q9 Mini transilluminator (UVTech Alliance, Cambridge, UK). Digested products were then used to transform NEB 5α competent E. coli cells in accordance with manufacturer’s instructions. Briefly, transformed PCR products were grown overnight on 8.5 mL Luria Broth agar plates (containing 100 μg/mL ampicillin) at 37° C. Single bacterial colonies were picked and inoculated in Luria Broth (containing 100 μg/mL ampicillin) and grown overnight in a shaking incubator at 37° C. Plasmids were then harvested and purified using a Qiagen miniprep kit (Qiagen, Hilden, Germany) and validated using sequencing (Genetics Analysis Service, University of Otago, Dunedin, New Zealand).
(§3) Dissociation of the G protein heterotrimer, specifically Gαi1, Gβ1, and Gγ2, was investigated using a bioluminescence resonance energy transfer (BRET) assay with the pIRES biosensor first described by and adapted by.
(§4) Briefly, 3 × 10^6 WT HEK293 cells were seeded into 10 cm culture dishes (Corning, Corning, NY, USA; one dish for the control receptor and one for each modified receptor) and incubated at 37 °C for 24 h to gain 50–60% confluency. Culture medium was then replaced and transfection mixtures containing 3 μg pIRES vector and 1 μg receptor (either pplss-hCB1 or modified receptor) were prepared (4 μg total DNA). Plasmids were initially diluted in sterile Milli-Q water before being diluted in OptiMEM reduced serum medium (Thermo Fisher Scientific, Waltham, MA, USA) and combined with […] polyethylenimine (PEI)-max (1:9 DNA:PEI-max ratio) and incubated at room temperature for 20 min. Transfection mixtures were then added to cells via dropwise addition, and cells were incubated at 37 °C for 24 h. Transfected cells were lifted and plated at 50,000 cells/well into poly-d-lysine (PDL; Sigma-Aldrich) coated white 96-well CulturPlates (PerkinElmer, Waltham, MA, USA) and incubated for a further 24 h at 37 °C.
(§5) To assay, the culture medium was aspirated and cells were washed with phosphate buffered saline (PBS) and replaced with BRET assay medium (phenol red free DMEM containing 25 mM HEPES and supplemented with 1 mg/mL bovine serum albumin; BSA, MP Biomedicals, Auckland, New Zealand) for 30 min prior to drug addition (serum starve). Drugs were prepared at 10 × concentration in BRET assay medium, combined in a polypropylene V-bottom plate, and incubated at 37° C prior to drug stimulation.

In experiment [2] the target is T2, hCB1 mutant I245A^4.54 (Homo sapiens, UniProt P21554, I245A).
T2 construct: expressed in transfected cells; host or cells: HEK293
T2 sequence (P21554 whole entry I245A): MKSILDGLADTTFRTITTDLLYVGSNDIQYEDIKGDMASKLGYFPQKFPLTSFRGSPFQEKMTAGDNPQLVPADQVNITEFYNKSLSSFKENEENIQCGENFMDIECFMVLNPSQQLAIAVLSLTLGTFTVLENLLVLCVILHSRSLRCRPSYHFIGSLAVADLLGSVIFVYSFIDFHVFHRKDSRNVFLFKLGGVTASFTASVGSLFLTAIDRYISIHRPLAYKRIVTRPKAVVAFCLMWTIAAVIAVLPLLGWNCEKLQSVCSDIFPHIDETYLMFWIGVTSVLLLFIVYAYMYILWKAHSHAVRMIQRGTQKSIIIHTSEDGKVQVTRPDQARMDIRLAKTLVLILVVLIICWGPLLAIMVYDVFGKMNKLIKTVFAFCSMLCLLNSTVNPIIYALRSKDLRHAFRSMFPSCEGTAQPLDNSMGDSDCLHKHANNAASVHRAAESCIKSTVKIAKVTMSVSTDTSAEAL
Briefly: pIRES G protein dissociation BRET assay, I245A mutant. The conditions noted are these: 10 μM ligand alone. As for the experimental part: as §1, §2, §3, §4, §5

The target of experiment [3] is T3, hCB1 mutant S173A^2.60 (Homo sapiens, UniProt P21554, S173A).
T3 construct: expressed in transfected cells; host or cells: HEK293
T3 sequence (P21554 whole entry S173A): as the sequence (P21554 whole entry I245A) above, with S173A, A245I counted along it
The experiment is described as follows: pIRES G protein dissociation BRET assay, S173A mutant. The settings on record: 10 μM ligand alone. As for the experimental part: as §1, §2, §3, §4, §5

For experiment [4], the target named is T4, hCB1 mutant Y172A^2.59 (Homo sapiens, UniProt P21554, Y172A).
T4 construct: expressed in transfected cells; host or cells: HEK293
T4 sequence (P21554 whole entry Y172A): as the sequence (P21554 whole entry I245A) above, with Y172A, A245I counted along it
The experiment is described as follows: pIRES G protein dissociation BRET assay, Y172A mutant. The settings on record: for Increase in the potency of CP55940-induced G protein dissociation: 10 μM allosteric ligand; for G protein dissociation, AUC of 10 μM compound (maximal response): 10 μM ligand alone. Here is the method:
as §1, §2, §3, §4, §5

Experiment [5] addresses T5, hCB1 mutant L209A^3.45 (Homo sapiens, UniProt P21554, L209A).
T5 construct: expressed in transfected cells; host or cells: HEK293
Briefly: pIRES G protein dissociation BRET assay, L209A mutant. The settings on record: 10 μM ligand alone. Here is the method:
as §1, §2, §3, §4
To assay, the culture medium was aspirated and cells were washed with phosphate buffered saline (PBS) and replaced with BRET assay medium (phenol red free DMEM containing 25 mM HEPES and supplemented with 1 mg/mL bovine serum albumin; BSA, MP Biomedicals, Auckland, New Zealand) for 30 min prior to drug addition (serum starve). Drugs were prepared at 10 × concentration in BRET assay medium, combined in a polypropylene V-bottom plate, and incubated at 37° C prior to drug stimulation. […]

In experiment [6] the target is T6, hCB1 mutant F408A^8.54 (Homo sapiens, UniProt P21554, F408A).
T6 construct: expressed in transfected cells; host or cells: HEK293
T6 sequence (P21554 whole entry F408A): as the sequence (P21554 whole entry I245A) above, with A245I, F408A counted along it
The experiment is described as follows: pIRES G protein dissociation BRET assay, F408A mutant. The settings on record: 10 μM ligand alone. Here is the method: as §1, §2, §3, §4, §5

Experiment [7] concerns the target T7, hCB1 mutant F289A^5.53 (Homo sapiens, UniProt P21554, F289A).
T7 construct: expressed in transfected cells; host or cells: HEK293
The experiment is described as follows: pIRES G protein dissociation BRET assay, F289A mutant. The settings on record: 10 μM ligand alone. As for the experimental part:
as §1, §2, §3, §4, §5

In experiment [8] the target is T8, hCB1 mutant F237A^4.46 (Homo sapiens, UniProt P21554, F237A).
T8 construct: expressed in transfected cells; host or cells: HEK293
T8 sequence (P21554 whole entry F237A): as the sequence (P21554 whole entry I245A) above, with F237A, A245I counted along it
The experiment is described as follows: pIRES G protein dissociation BRET assay, F237A mutant. The settings on record: 10 μM ligand alone. Here is the method:
as §1, §2, §3, §4, §5

Experiment [9] addresses T9, hCB1 mutant R220A^3.56 (Homo sapiens, UniProt P21554, R220A).
T9 construct: expressed in transfected cells; host or cells: HEK293
Briefly: pIRES G protein dissociation BRET assay, R220A mutant. The settings on record: 10 μM ligand alone. Here is the method:
as §1, §2, §3, §4, §5

The target in experiment [10] is T10, hCB1 mutant F191A^3.27 (Homo sapiens, UniProt P21554, F191A).
T10 construct: expressed in transfected cells; host or cells: HEK293
T10 sequence (P21554 whole entry F191A): as the sequence (P21554 whole entry I245A) above, with F191A, A245I counted along it
Briefly: pIRES G protein dissociation BRET assay, F191A mutant. The conditions noted are these: for G protein dissociation, AUC of 10 μM compound (maximal response): 10 μM ligand alone; for Allosteric agonism: G protein dissociation in the absence of an orthosteric ligand: 10 μM, result in words. Here is the method:
as §1, §2, §3, §4, §5

T9 sequence (P21554 whole entry R220A): as the sequence (P21554 whole entry I245A) above, with R220A, A245I counted along it
T7 sequence (P21554 whole entry F289A): as the sequence (P21554 whole entry I245A) above, with A245I, F289A counted along it
T5 sequence (P21554 whole entry L209A): as the sequence (P21554 whole entry I245A) above, with L209A, A245I counted along it
T1 sequence (P21554 whole entry K232A): as the sequence (P21554 whole entry I245A) above, with K232A, A245I counted along it

For `O=[N+]([O-])C[C@H](c1ccccc1)c1c(-c2ccccc2)[nH]c2ccccc12` [GAT228], the “G protein dissociation, AUC of 10 μM compound (maximal response)” value (shortened to “G protein dissociation, AUC”) was −94.0 ± 10.5 in experiment [1]; −90.3 ± 8.5 in experiment [2]; −105.5 ± 7.6 in [3]; −133.4 ± 9.8 in [4]; −19.0 ± 3.3 in experiment [5]; −90.3 ± 8.3 in experiment [6]. In addition, the “G protein dissociation, AUC” value is listed as −97.4 ± 7.2 in experiment [7], −40.8 ± 2.8 in experiment [8], −85.2 ± 13.6 in experiment [9] and 19.5 ± 11.9 in experiment [10]. Also, in experiment [4], the “Increase in the potency of CP55940-induced G protein dissociation” value is recorded as “less than 0.5 log units”. Also, the “Allosteric agonism: G protein dissociation in the absence of an orthosteric ligand” value in experiment [10] is “abolished”.

With `O=[N+]([O-])C[C@@H](c1ccccc1)c1c(-c2ccccc2)[nH]c2ccccc12` [GAT229], the “G protein dissociation, AUC” value in [1] was −134.5 ± 7.9; in [2] it was −121.6 ± 8.0; in experiment [3] it was −137.3 ± 4.8; in experiment [4], −207.0 ± 7.1; in experiment [5], −25.1 ± 3.5; in experiment [6] it was −110.0 ± 8.6. For the same compound, the “G protein dissociation, AUC” value in experiment [7] is recorded as −123.6 ± 5.9; in [8], −52.4 ± 5.2; in experiment [9] it was −102.9 ± 9.9; in [10] it was 22.1 ± 6.4. Besides, the “Increase in the potency of CP55940-induced G protein dissociation” value in experiment [4] is recorded as “less than 0.5 log units”. In addition, in experiment [10], the “Allosteric agonism: G protein dissociation in the absence of an orthosteric ligand” value is given as “abolished”.

These data come from PMC10892375, “Determination of the Cannabinoid CB1 Receptor’s Positive Allosteric Modulator Binding Site through Mutagenesis Studies” (Pharmaceuticals, 2024).
